Patent publication US5856344A, “Sulfonylamino-substituted benzoylguanidines, a process for their preparation, their use as a medicament or diagnostic aid, and medicament containing them” (Hoechst Aktiengesellschaft, priority 1995, dated 1999)
Counter-ions that a name gives are not always drawn.

Target: T1, Na^+ /H^+ exchanger of rabbit erythrocytes (Oryctolagus cuniculus, UniProt P23791)
T1 construct: endogenous in cells; host or cells: erythrocytes in whole blood of cholesterol-fed White New Zealand rabbits (Ivanovas)
Assay: Inhibition of the Na+/H+ exchanger of rabbit erythrocytes (amiloride-sensitive sodium influx, flame photometry)
Assay type: cell-based, rabbit (White New Zealand)
Conditions: hyperosmolar salt/sucrose medium, pH 7.4, 37° C.
From the text: Inhibition of the Na^+ /H^+ exchanger of rabbit erythrocytes White New Zealand rabbits (Ivanovas) received a standard diet containing 2% cholesterol for six weeks in order to activate Na^+ /H^+ exchange and thus to make it possible to determine the Na^+ influx into the erythrocytes via Na^+ /H^+ exchange by flame photometry. The blood was taken from the arteries of the ear and anticoagulated with 25 IU of potassium heparin. Part of each sample was used for duplicate determination of the hematocrit by centrifugation. Aliquots each of 100 μl were used to measure the Na^+ content of the erythrocytes.
In order to determine the amiloride-sensitive sodium influx, 100 μl of each blood sample were incubated in each case in 5 ml of a hyperosmolar salt/sucrose medium (mmol/l: 140 NaCl, 3 KCl, 150 sucrose, 0.1 ouabain, 20 trishydroxymethylaminomethane) at pH 7.4 and 37° C. The erythrocytes were then washed three times with ice-cold MgCl2 /ouabain solution (mmol/l: 112 MgCl2, 0.1 ouabain) and hemolyzed in 2.0 ml of distilled water. The intracellular sodium content was determined by flame photometry.
The net Na^+ influx was calculated from the difference between the initial sodium levels and the sodium content of the erythrocytes after incubation. […]

T1 sequence (P23791 whole entry): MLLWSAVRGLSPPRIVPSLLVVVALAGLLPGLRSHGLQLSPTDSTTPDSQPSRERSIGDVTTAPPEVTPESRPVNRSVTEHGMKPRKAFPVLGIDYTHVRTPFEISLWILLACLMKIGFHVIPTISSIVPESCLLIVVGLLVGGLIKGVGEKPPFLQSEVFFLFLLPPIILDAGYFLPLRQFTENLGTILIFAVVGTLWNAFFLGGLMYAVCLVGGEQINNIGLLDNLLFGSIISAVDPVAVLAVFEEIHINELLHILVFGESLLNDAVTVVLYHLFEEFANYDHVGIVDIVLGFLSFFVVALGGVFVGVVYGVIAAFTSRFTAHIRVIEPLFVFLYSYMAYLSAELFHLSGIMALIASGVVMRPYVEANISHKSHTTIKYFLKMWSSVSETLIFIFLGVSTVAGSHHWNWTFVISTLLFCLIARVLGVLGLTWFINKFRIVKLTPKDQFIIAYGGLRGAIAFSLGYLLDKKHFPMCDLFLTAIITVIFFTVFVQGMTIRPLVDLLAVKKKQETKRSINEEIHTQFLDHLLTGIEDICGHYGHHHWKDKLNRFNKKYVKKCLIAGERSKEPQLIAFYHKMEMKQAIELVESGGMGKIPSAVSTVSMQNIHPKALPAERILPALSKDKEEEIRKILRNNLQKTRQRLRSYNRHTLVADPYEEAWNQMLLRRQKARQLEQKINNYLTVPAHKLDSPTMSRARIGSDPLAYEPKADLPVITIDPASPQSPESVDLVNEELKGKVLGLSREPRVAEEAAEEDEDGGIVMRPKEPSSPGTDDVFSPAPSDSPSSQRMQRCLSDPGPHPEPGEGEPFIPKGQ

Row | SMILES | IC50
1 | CC(C)c1ccc(C(=O)N=C(N)N)cc1NS(C)(=O)=O [Example 1, 4-Isopropyl-3-methylsulfonylaminobenzoylguanidine, hydrochloride] | 300 nM
2 | CS(=O)(=O)Nc1cc(C(=O)N=C(N)N)ccc1Oc1cccnc1 [Example 2, 3-Methylsulfonylamino-4--(3-pyridyloxy)benzoylguanidine] | 740 nM
